Experimental data reported in patent publication US10647680B2, “Urea compound, preparation method therefor and medical use thereof” (Ancureall Pharmaceutical (Shanghai) Co., Ltd., priority 2016, dated 2020).

Columns and labels:
[1] = Metabolic stability in rat liver microsomes; format: in vitro ADME; settings: rat liver microsome
Description: The experiment on the compound stability in rat liver microsomes was performed using compound 77 of the present invention as a representative example.
Procedure: The mixed reaction solution containing reducing coenzyme II (1 mg/ml, Roche 10621706001), rat liver microsomes (0.5 mg/ml, BD Gentest), phosphate buffer (0.1M) and ionized water was prepared according to a certain ratio, and then the reaction solution was placed in a 37° C. water bath and preheated for 2 minutes. A certain amount of compound 77 or reference substance was added to the prepared mixed reaction solution to start the reaction. In the final reaction system, the concentration of compound 77 or the positive control midazolam (National Institutes for Food and Drug Control) was 2 uM, and water was used instead of reducing coenzyme II as a negative control. […] The ratio of mean peak area of compound 77 to the mean peak area of internal standard at each time point was calculated, and the percentage of this ratio to that at time point 0 was calculated, and then change in this percentage was used to indicate the metabolic stability of the compound 77. […]

[2] = molecular target: T1, CYP3A4-T (Homo sapiens, UniProt P08684); assay: P450 enzyme inhibition, CYP3A4-T (Testosterone); format: in vitro ADME; settings: human liver microsomes
T1 construct: human liver microsomes (BD Gentest) (0.5 mg/mL); tissue BD Gentest; host or cells: human liver microsomes
Description: Eight cytochrome p450 enzyme inhibition reactions of human liver microsomes were performed using compound 77 of the present invention as a representative example.
The main reaction systems and processes: in 37° C. water bath, the test compounds (7 concentrations, 0, 0.25, 0.5, 5, 10, 25, and 50 uM; the final methanol concentration was 1% in the system), human liver microsomes (BD Gentest) (0.5 mg/mL) and reducing coenzyme II (Roche 10621706001) (1 mg/mL) and the corresponding cytochrome p450 enzyme probe substrate were co-incubated for 5 to 20 minutes. Among them, (1) the probe substrate for CYP1A2 was Phenacetin ([…]) (Sigma), and the selective inhibitor alpha-naphthoflavone (2 uM) (Sigma) was for parallel detection as positive control, and they were incubated for 20 minutes. (2) The probe substrate for CYP2b6 was Bupropion (40 uM) (Sigma) and the selective inhibitor Ticlopidine (10 uM) (Sigma) was for parallel detection as positive control, and they were incubated for 20 minutes. (3) The probe substrate of CYP2C8 was Amodiaquine (1 uM) (Sigma), and the selective inhibitor Montelukast (10 uM) (Sigma) was for parallel detection as positive control, and they were incubated for 20 minutes. (4) The probe substrate for CYP2C9 was Diclofenac (2.5 uM) (Sigma), and the selective inhibitor Sulphaphenazole (10 uM) (Sigma) was for parallel detection as positive control, and they were incubated for 20 minutes. (5) The probe substrate for CYP2C19 was Mephenytoin (40 uM) (Sigma), and the selective inhibitor Ticlopidine (10 uM) (Sigma) was for parallel detection as positive control, and they were incubated for 20 minutes. (6) The probe substrate for CYP2D6 was Dextromethorphan (5 uM) (Sigma), and the selective inhibitor Quinidine (10 uM) (Sigma) was for parallel detection as positive control, and they were incubated for 20 minutes. (7) The probe substrates for CYP3A4-T and CYP3A4-M were Testosterone (5 uM) (Sigma) and Midazolam (5 uM) (Sigma), respectively, and the selective inhibitor was Ketoconazole (1 uM) (Sigma), they were detected in parallel as positive control, and incubated for 5 minutes. The reaction system was quenched by adding methanol containing the corresponding internal standard. The internal standard compound was Tolbutamide (Sigma). The concentration of the corresponding metabolites was determined by LC/MS/MS. For the data analysis, the decrease in peak area of the metabolite of the sample after addition of compound 77 relative to the peak area of the metabolite of the solvent control sample was used to calculate the IC50 (concentration of the test substance at 50% inhibition). The percentages of peak areas of metabolites of CYP1A2, CYP2B6, CYP2C8, CYP2C9, 15CYP2C19, CYP2D6, CYP3A4-T, and CYP3A4-M probe substrates after addition of different concentrations of compound 77 and selective inhibitors relative to the solvent control peak areas were shown in the Table 7.

T1 sequence (P08684 whole entry): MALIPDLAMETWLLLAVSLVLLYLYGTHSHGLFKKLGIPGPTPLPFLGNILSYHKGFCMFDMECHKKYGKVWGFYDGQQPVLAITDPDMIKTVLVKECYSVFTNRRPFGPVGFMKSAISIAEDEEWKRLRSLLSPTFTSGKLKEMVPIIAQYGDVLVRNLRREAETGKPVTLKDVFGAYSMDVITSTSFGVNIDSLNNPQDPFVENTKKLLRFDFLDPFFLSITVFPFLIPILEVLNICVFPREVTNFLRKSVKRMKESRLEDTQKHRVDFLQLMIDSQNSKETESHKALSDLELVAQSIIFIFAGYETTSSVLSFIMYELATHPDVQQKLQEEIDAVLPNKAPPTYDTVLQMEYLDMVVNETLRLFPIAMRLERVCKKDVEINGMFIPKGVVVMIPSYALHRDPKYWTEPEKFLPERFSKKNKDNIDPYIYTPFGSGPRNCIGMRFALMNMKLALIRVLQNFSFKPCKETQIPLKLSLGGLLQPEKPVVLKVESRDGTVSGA

COCCOc1ccc2c(c1)ncn2-c1ccc(NC(=O)Nc2cc(C(C)(C)C)n[nH]2)cc1 [Compound 77, 1-(5-tert-butyl-2H-pyrazol-3-yl)-3-{4-[5-(2-methoxyl-ethoxyl)-benzimidazol-1-yl]-phenyl}-urea]
elimination rate constant ([1]; 2 uM): 0.0031 | half-life at 2 uM ([1]; rat liver microsomes): 3.73 h | CYP3A4T Remaining % ([2]; Concentration 0.25 uM): 108.5% | CYP3A4T Remaining % ([2]; Concentration 0.5 uM): 108.2% | CYP3A4T Remaining % ([2]; Concentration 5 uM): 104.7% | CYP3A4T Remaining % ([2]; Concentration 10 uM): 112.5% | CYP3A4T Remaining % ([2]; Concentration 25 uM): 109.9% | CYP3A4T Remaining % ([2]; Concentration 50 uM): 101.2% | inhibitory effect on CYP3A4-T ([2]; Concentration 50 uM): no significant inhibitory effect
